What was measured:
[1] = biological target: T1, Recombinant human His-tagged Kat6a protein (amino acids 194-810) (Homo sapiens, UniProt Q92794); assay: Kat6a activity assay (TR-FRET, acetylation of Histone-H4-derived peptide); type: biochemical; details: 60 mins at 22° C., 220 nM H4 peptide, 600 nM Acetyl Coenzyme A, read-out: KAT6A - DPF/HAT domain IC50 [mol/l] (arithmetic mean)
T1 construct: Kat6a protein (amino acids 194-810); His

[2] = test system: ESR1 transcription in MVLN cells; assay: MVLN reporter assay: repression of ESR1 transcription (luciferase signal); type: cell-based; details: Homo sapiens, MVLN, 24 h, luciferase signal after 24 h, read-out: MVLN reporter assay, IC50 [M] (arithmetic mean)
Method in brief: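 MVLN cells, expressing ER and stably carrying a vitellogenin A2 ERE-luciferase reporter, treated with compound in duplicate; luciferase read after 24 h with Steadylite plus. Cell density checked in parallel by Alamar Blue fluorescence (530/590 nm, 2 h) before the luciferase read.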

T1 sequence (Q92794 194-810): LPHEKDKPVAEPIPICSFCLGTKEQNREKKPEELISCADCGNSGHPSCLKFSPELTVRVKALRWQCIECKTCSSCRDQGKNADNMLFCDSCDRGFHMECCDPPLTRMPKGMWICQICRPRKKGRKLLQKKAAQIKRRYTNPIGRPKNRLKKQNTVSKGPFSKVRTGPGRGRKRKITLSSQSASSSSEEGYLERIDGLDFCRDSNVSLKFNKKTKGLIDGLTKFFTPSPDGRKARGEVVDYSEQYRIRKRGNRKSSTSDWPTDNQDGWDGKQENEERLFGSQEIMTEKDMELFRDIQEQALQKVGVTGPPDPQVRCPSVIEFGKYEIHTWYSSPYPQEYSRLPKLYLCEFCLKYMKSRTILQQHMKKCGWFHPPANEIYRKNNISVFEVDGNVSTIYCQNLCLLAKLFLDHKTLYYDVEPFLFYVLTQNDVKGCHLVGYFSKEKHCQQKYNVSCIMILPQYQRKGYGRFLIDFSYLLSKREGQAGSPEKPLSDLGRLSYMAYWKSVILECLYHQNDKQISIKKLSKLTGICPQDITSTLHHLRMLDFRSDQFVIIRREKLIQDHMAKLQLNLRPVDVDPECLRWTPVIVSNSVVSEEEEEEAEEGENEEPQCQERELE

IC50 [1]	IC50 [2]	SMILES
26.2 nM	1.74e-07 M	COc1ccc(N2CCOCC2)cc1S(=O)(=O)NC(=O)c1cc2c(F)cc(N3CCC3)cc2o1 [Example 137, 6-(Azetidin-1-yl)-4-fluoro-N-[2-methoxy-5-(morpholin-4-yl)benzene-1-sulfonyl]-1-benzofuran-2-carboxamide]
41.3 nM	2.36e-07 M	COc1ccc(Br)cc1S(=O)(=O)NC(=O)c1cc2c(F)cc(N3CCC3)cc2o1 [Example 139, 6-(azetidin-1-yl)-N-(5-bromo-2-methoxybenzene-1-sulfonyl)-4-fluoro-1-benzofuran-2-carboxamide]
139 nM	5.12e-07 M	O=C(NS(=O)(=O)c1cccc2c1S(=O)(=O)CCC2)c1cc2c(F)cc(N3CCC3)cc2o1 [Example 141, 6-(Azetidin-1-yl)-N-(1,1-dioxo-1,2,3,4-tetrahydro-1-benzothiopyran-8-sulfonyl)-4-fluoro-1-benzofuran-2-carboxamide]
149 nM	1.2e-06 M	O=C(NS(=O)(=O)c1c(Cl)ccc2c1OC(F)(F)O2)c1cc2c(F)cc(N3CCC3)cc2o1 [Example 142, 6-(Azetidin-1-yl)-N-(5-chloro-2,2-difluoro-2H-1,3-benzodioxole-4-sulfonyl)-4-fluoro-1-benzofuran-2-carboxamide]
226 nM	4.61e-06 M	CCn1nc(S(=O)(=O)NC(=O)c2cc3c(F)cc(N4CCC4)cc3o2)c2cccnc21 [Example 143, 6-(Azetidin-1-yl)-N-(1-ethyl-1H-pyrazolo[3,4-b]pyridine-3-sulfonyl)-4-fluoro-1-benzofuran-2-carboxamide]
548 nM	7.93e-06 M	Cn1nc(S(=O)(=O)NC(=O)c2cc3c(F)cc(N4CCC4)cc3o2)c2ccc(C(F)(F)F)nc21 [Example 144, 6-(Azetidin-1-yl)-4-fluoro-N-[1-methyl-6-(trifluoromethyl)-1H-pyrazolo[3,4-b]pyridine-3-sulfonyl]-1-benzofuran-2-carboxamide]
402 nM	8.4e-06 M	Cc1ccc2c(S(=O)(=O)NC(=O)c3cc4c(F)cc(N5CCC5)cc4o3)nn(C)c2n1 [Example 145, 6-(Azetidin-1-yl)-N-(1,6-dimethyl-1H-pyrazolo[3,4-b]pyridine-3-sulfonyl)-4-fluoro-1-benzofuran-2-carboxamide]
290 nM	2.83e-06 M	Cc1ccnc2c1c(S(=O)(=O)NC(=O)c1cc3c(F)cc(N4CCC4)cc3o1)nn2C [Example 146, 6-(Azetidin-1-yl)-N-(1,4-dimethyl-1H-pyrazolo[3,4-b]pyridine-3-sulfonyl)-4-fluoro-1-benzofuran-2-carboxamide]
91.5 nM	2.98e-06 M	CCCc1ccc2nc(Cl)c(S(=O)(=O)NC(=O)c3cc4c(F)cc(N5CCC5)cc4o3)n2n1 [Example 147, 6-(Azetidin-1-yl)-N-(2-chloro-6-propylimidazo[1,2-b]pyridazine-3-sulfonyl)-4-fluoro-1-benzofuran-2-carboxamide]
274 nM	3.14e-06 M	CCSc1nc2ccccn2c1S(=O)(=O)NC(=O)c1cc2c(F)cc(N3CCC3)cc2o1 [Example 148, 6-(Azetidin-1-yl)-N-[2-(ethylsulfanyl)imidazo[1,2-a]pyridine-3-sulfonyl]-4-fluoro-1-benzofuran-2-carboxamide]
261 nM	3.66e-06 M	CSc1nc2ccccn2c1S(=O)(=O)NC(=O)c1cc2c(F)cc(N3CCC3)cc2o1 [Example 149, 6-(Azetidin-1-yl)-4-fluoro-N-[2-(methylsulfanyl)imidazo[1,2-a]pyridine-3-sulfonyl]-1-benzofuran-2-carboxamide]
25.7 nM	1.05e-07 M	COc1cc(C)ccc1S(=O)(=O)NC(=O)c1cc2c(F)cc(N3CC(F)C3)cc2o1 [Example 158, 4-Fluoro-6-(3-fluoroazetidin-1-yl)-N-(2-methoxy-4-methylbenzene-1-sulfonyl)-1-benzofuran-2-carboxamide]
34.3 nM	7.45e-07 M	O=C(NS(=O)(=O)c1cccc2c1OC(F)(F)C(F)(F)O2)c1cc2c(F)cc(N3CC(F)C3)cc2o1 [Example 159, 4-Fluoro-6-(3-fluoroazetidin-1-yl)-N-(2,2,3,3-tetrafluoro-2,3-dihydro-1,4-benzodioxine-5-sulfonyl)-1-benzofuran-2-carboxamide]
251 nM	2.34e-06 M	CC(C)N(C)c1cc(F)c(S(=O)(=O)NC(=O)c2cc3c(F)cc(N4CC(F)C4)cc3o2)c(F)c1 [Example 164, N-{2,6-difluoro-4-[methyl(propan-2-yl)amino]benzene-1-sulfonyl}-4-fluoro-6-(3-fluoroazetidin-1-yl)-1-benzofuran-2-carboxamide]
318 nM	8.64e-07 M	CC(C)N(C)c1cc(F)cc(F)c1S(=O)(=O)NC(=O)c1cc2c(F)cc(N3CC(F)C3)cc2o1 [Example 165, N-{2,4-difluoro-6-[methyl(propan-2-yl)amino]benzene-1-sulfonyl}-4-fluoro-6-(3-fluoroazetidin-1-yl)-1-benzofuran-2-carboxamide]
362 nM	7.22e-06 M	CC(C)N(C)c1ccc(S(=O)(=O)NC(=O)c2cc3c(F)cc(N4CC(F)C4)cc3o2)c(F)c1F [Example 166, N-{2,3-difluoro-4-[methyl(propan-2-yl)amino]benzene-1-sulfonyl}-4-fluoro-6-(3-fluoroazetidin-1-yl)-1-benzofuran-2-carboxamide]
517 nM	> 2e-05 M	CCS(=O)(=O)c1nc2ccccn2c1S(=O)(=O)NC(=O)c1cc2c(F)cc(N3CCC3)cc2o1 [Example 167, 6-(Azetidin-1-yl)-N-[2-(ethanesulfonyl)imidazo[1,2-a]pyridine-3-sulfonyl]-4-fluoro-1-benzofuran-2-carboxamide]
671 nM	> 2e-05 M	O=C(NS(=O)(=O)c1cnc2c(Cl)cc(Cl)cn12)c1cc2c(F)cc(N3CCC3)cc2o1 [Example 168, 6-(Azetidin-1-yl)-N-(6,8-dichloroimidazo[1,2-a]pyridine-3-sulfonyl)-4-fluoro-1-benzofuran-2-carboxamide]
10.5 nM	1.33e-07 M	CC(C)Oc1ccc(Br)cc1S(=O)(=O)NC(=O)c1cc2c(F)cc(N3CCC3)cc2o1 [Example 170, 6-(azetidin-1-yl)-N-{5-bromo-2-[(propan-2-yl)oxy]benzene-1-sulfonyl}-4-fluoro-1-benzofuran-2-carboxamide]
34 nM	1.35e-07 M	O=C(NS(=O)(=O)c1cccc2c1OCCO2)c1cc2c(F)cc(N3CCC3)cc2o1 [Example 172, 6-(Azetidin-1-yl)-N-(2,3-dihydro-1,4-benzodioxine-5-sulfonyl)-4-fluoro-1-benzofuran-2-carboxamide]
65.7 nM	1.58e-07 M	Cc1ccc2cccnc2c1S(=O)(=O)NC(=O)c1cc2c(F)cc(N3CCC3)cc2o1 [Example 173, 6-(Azetidin-1-yl)-4-fluoro-N-(7-methylquinoline-8-sulfonyl)-1-benzofuran-2-carboxamide]
26.5 nM	1.65e-07 M	COc1cc(Br)ccc1S(=O)(=O)NC(=O)c1cc2c(F)cc(N3CCC3)cc2o1 [Example 174, 6-(Azetidin-1-yl)-N-(4-bromo-2-methoxybenzene-1-sulfonyl)-4-fluoro-1-benzofuran-2-carboxamide]
44.9 nM	1.65e-07 M	Cc1cc(S(=O)(=O)NC(=O)c2cc3c(F)cc(N4CCC4)cc3o2)c2ncccc2c1 [Example 175, 6-(Azetidin-1-yl)-4-fluoro-N-(6-methylquinoline-8-sulfonyl)-1-benzofuran-2-carboxamide]
26.8 nM	1.88e-07 M	O=C(NS(=O)(=O)c1c[nH]c2ccccc12)c1cc2c(F)cc(N3CCC3)cc2o1 [Example 176, 6-(Azetidin-1-yl)-4-fluoro-N-(1H-indole-3-sulfonyl)-1-benzofuran-2-carboxamide]
21.4 nM	2.24e-07 M	O=C(NS(=O)(=O)c1cc(Br)cc2c1OCC2)c1cc2c(F)cc(N3CCC3)cc2o1 [Example 177, 6-(Azetidin-1-yl)-N-(5-bromo-2,3-dihydro-1-benzofuran-7-sulfonyl)-4-fluoro-1-benzofuran-2-carboxamide]
35.3 nM	3.16e-07 M	O=C(NS(=O)(=O)c1csc2ccccc12)c1cc2c(F)cc(N3CCC3)cc2o1 [Example 178, 6-(Azetidin-1-yl)-N-(1-benzothiophene-3-sulfonyl)-4-fluoro-1-benzofuran-2-carboxamide]
66.6 nM	5.53e-07 M	Cn1nc2cccc(S(=O)(=O)NC(=O)c3cc4c(F)cc(N5CCC5)cc4o3)c2n1 [Example 179, 6-(Azetidin-1-yl)-4-fluoro-N-(2-methyl-2H-benzotriazole-4-sulfonyl)-1-benzofuran-2-carboxamide]
35.9 nM	6.28e-07 M	COc1ccc(S(=O)(=O)NC(=O)c2cc3c(F)cc(N4CCC4)cc3o2)c2c1CCCC2 [Example 180, 6-(Azetidin-1-yl)-4-fluoro-N-(4-methoxy-5,6,7,8-tetrahydronaphthalene-1-sulfonyl)-1-benzofuran-2-carboxamide]
89.5 nM	6.47e-07 M	O=C(NS(=O)(=O)c1cccc2nsnc12)c1cc2c(F)cc(N3CCC3)cc2o1 [Example 181, 6-(Azetidin-1-yl)-N-(2,1,3-benzothiadiazole-4-sulfonyl)-4-fluoro-1-benzofuran-2-carboxamide]
55.1 nM	8.48e-07 M	COc1ccc2snnc2c1S(=O)(=O)NC(=O)c1cc2c(F)cc(N3CCC3)cc2o1 [Example 182, 6-(Azetidin-1-yl)-4-fluoro-N-(5-methoxy-1,2,3-benzothiadiazole-4-sulfonyl)-1-benzofuran-2-carboxamide]
